Literature values in patent publication US20250261634A1, “LIQUID HERBICIDAL COMPOSITIONS” (priority 2021, published 2025).

Test system: weeds
Details: in vivo

SMILES: CP(=O)(O)CC[C@H](N)C(=O)O (single isomer, unassigned) [L-isomer]
- herbicidal activity relative to the racemate: twice that of the racemate
